Values of other authors in publication PMC4019989 (Clinical cancer research : an official journal of the …, 2009).

System: animals
Conditions: cited from earlier work

## CC(C)C[C@H](NC(=O)[C@H](Cc1ccccc1)NC(=O)c1cnccn1)B(O)O [bortezomib]
  Toxicity of consecutive-day dosing: excessive toxicity
